Among the data in patent US10508077B2 (FORMA Therapeutics, Inc., priority 2015, dated 2019) are IC50 values, retold here.

A value given as a limit tells only on which side of the number the result lay.

The target in assay [1] is T1, Full length human recombinant HDAC8 protein (Homo sapiens, UniProt Q9BY41).
T1 construct: Full length human recombinant HDAC8 protein was expressed in baculoviral system; made in house
T1 sequence (Q9BY41 1-377): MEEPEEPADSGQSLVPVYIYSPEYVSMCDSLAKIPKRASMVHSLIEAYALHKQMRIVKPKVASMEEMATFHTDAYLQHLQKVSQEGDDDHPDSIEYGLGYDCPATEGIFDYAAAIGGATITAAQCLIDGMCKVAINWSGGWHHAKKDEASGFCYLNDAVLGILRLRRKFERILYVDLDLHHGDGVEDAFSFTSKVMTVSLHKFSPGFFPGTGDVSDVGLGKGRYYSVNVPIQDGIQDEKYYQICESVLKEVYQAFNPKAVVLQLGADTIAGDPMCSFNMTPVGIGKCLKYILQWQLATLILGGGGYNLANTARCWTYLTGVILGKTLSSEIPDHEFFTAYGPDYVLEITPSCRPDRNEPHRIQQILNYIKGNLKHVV
In words: In vitro histone deacetylase assay: enzymatic HDAC8 assay, electrophoretic mobility shift. It is filed as biochemical. As to conditions: substrate RHKK(Ac)-NH2, 1 nM enzyme, compounds listed under IC50 range headings. The procedure, abridged:
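Readout was microfluidic mobility-shift separation of deacetylated product from fluorescent RHKK(Ac)-NH2 substrate (2 µM), after reaction with 1 nM recombinant full-length human HDAC8 at 25 °C, pH 7.5, stopped with SDS. Twelve 3-fold-spaced concentrations tested; product/sum ratios normalized to controls and fitted with a 4-parameter model for IC50.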
On the technique in general: A gel shift assay detects complexes by their altered migration in electrophoresis.

For assay [2], the target named is T2, Recombinant N-terminal GST tag full-length human HDAC8 (Homo sapiens, UniProt Q9BY41).
T2 construct: Recombinant N-terminal GST tag full-length human HDAC8; purchased SignalChem H90-30G-1000; host or cells: Sf9 insect cells (baculovirus)
T2 sequence (Q9BY41 1-377): T1 sequence (Q9BY41 1-377)
In words: HDAC8 probe binding assay, time resolved fluorescence (TRF). As to conditions: fluorescein labeled pan-HDAC inhibitor probe, 16 hours incubation, compounds listed under IC50 range headings. In short, it runs like this: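 TR-FRET probe displacement using GST-tagged full-length human HDAC8 (Sf9-expressed, 2.5 nM) with 1.5 nM fluorescein-labelled pan-HDAC inhibitor probe and anti-GST terbium, in HEPES pH 7.5 buffer with GSH, BGG, Triton X-100. Compounds 25 μM–1.3 nM, 10-point; 16 h at room temperature. IC50 from 4-parameter fit of % inhibition versus no-enzyme and DMSO controls.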

One may read the IC50 as the concentration needed to halve the response being measured. With `O=C(/C=C/c1ccccc1NC(=O)[C@H]1C[C@@H]1c1ccccc1)NO` [Example I-83, (1S,2S)-N-(2-((E)-3-(hydroxyamino)-3-oxoprop-1-en-1-yl)phenyl)-2-phenylcyclopropane-1-carboxamide], the 50% inhibitory concentration (IC50) in assay [1] is under 1000 nM; in assay [2], at most 1000 nM.
On to `O=C(/C=C/c1ccccc1C(=O)N1CCC(F)(F)C1)NO` [II-28, (E)-3-(2-(3,3-difluoropyrrolidine-1-carbonyl)phenyl)-N-hydroxyacrylamide], for which the IC50 is under 1000 nM in assay [1] and at most 1000 nM in assay [2].
For `Cn1cncc1CN1CCN(c2ccccc2/C=C/C(=O)NO)CC1` [Example I-180, (E)-N-hydroxy-3-(2-(4-((1-methyl-1H-imidazol-5-yl)methyl)piperazin-1-yl)phenyl)acrylamide] the same measures were under 1000 nM and at most 1000 nM.
For `O=C(/C=C/c1ccccc1NC(=O)C1CCc2ccccc2C1)NO` (stereo not drawn) [Example I-65, (E)-N-(2-(3-(hydroxyamino)-3-oxoprop-1-en-1-yl)phenyl)-1,2,3,4-tetrahydronaphthalene-2-carboxamide] the same measures were under 1000 nM and at most 1000 nM.
With `CC(C)(C)OC(=O)N1CCN(c2ccccc2/C=C/C(=O)NO)C(=O)C1` [Example I-263, tert-butyl (E)-4-(2-(3-(hydroxyamino)-3-oxoprop-1-en-1-yl)phenyl)-3-oxopiperazine-1-carboxylate], the IC50 was under 1000 nM in assay [1] and at most 1000 nM in assay [2].
In the case of `O=C(/C=C/c1ccccc1NC(=O)c1cnc(-c2ccccn2)s1)NO` [Example I-312, (E)-N-(2-(3-(hydroxyamino)-3-oxoprop-1-en-1-yl)phenyl)-2-(pyridin-2-yl)thiazole-5-carboxamide], the IC50 in assay [1] was under 1000 nM; in assay [2], at most 1000 nM.
For `CC(C)(C)OC(=O)N1CCCCC12CCN(c1ccccc1/C=C/C(=O)NO)CC2` [Example I-538, tert-butyl (E)-9-(2-(3-(hydroxyamino)-3-oxoprop-1-en-1-yl)phenyl)-1,9-diazaspiro[5.5]undecane-1-carboxylate], the IC50 is under 1000 nM in assay [1] and at most 1000 nM in assay [2].
In the case of `CCC(Oc1ccccc1)C(=O)Nc1ccccc1/C=C/C(=O)NO` (stereo not drawn) [Example I-281, (E)-N-(2-(3-(hydroxyamino)-3-oxoprop-1-en-1-yl)phenyl)-2-phenoxybutanamide], the 50% inhibitory concentration (IC50) was under 1000 nM in assay [1] and at most 1000 nM in assay [2].
As for `CN1CCN(c2ccccc2/C=C/C(=O)NO)CC1` [Example I-326, (E)-N-hydroxy-3-(2-(4-methylpiperazin-1-yl)phenyl)acrylamide], the half-maximal inhibitory concentration (IC50) in assay [1] was under 1000 nM; in assay [2], at most 1000 nM.
Regarding `O=C(/C=C/c1ccccc1NC(=O)c1ccccc1Oc1ccc(Cl)cc1F)NO` [Example I-534, (E)-2-(4-chloro-2-fluorophenoxy)-N-(2-(3-(hydroxyamino)-3-oxoprop-1-en-1-yl)phenyl)benzamide], the IC50 in assay [1] is under 1000 nM; in assay [2] it was at most 1000 nM.
In the case of `O=C(/C=C/c1ccccc1N1CCC(NC(=O)c2ccnn2C(F)F)CC1)NO` [Example I-148], the results for the concentration for half-maximal inhibition (IC50) in assay [1] and in assay [2] were under 1000 nM and at most 1000 nM, respectively.
For `O=C(/C=C/c1ccccc1NC(=O)[C@@H]1C[C@H]2CC[C@@H]1O2)NO` [Example I-282, (1S,2R,4R)-N-(2-((E)-3-(hydroxyamino)-3-oxoprop-1-en-1-yl)phenyl)-7-oxabicyclo[2.2.1]heptane-2-carboxamide] the same measures were under 1000 nM and at most 1000 nM.
With `O=C(/C=C/c1ccccc1C(=O)N1CCCC1)NO` [II-15, (E)-N-hydroxy-3-(2-(pyrrolidine-1-carbonyl)phenyl)acrylamide], the IC50 in assay [1] is under 1000 nM; in assay [2], at most 1000 nM.
Turning to `O=C(NO)/C(F)=C/c1ccccc1NC(=O)c1cccc(C(F)(F)F)c1` [Example I-324, (Z)—N-(2-(2-fluoro-3-(hydroxyamino)-3-oxoprop-1-en-1-yl)phenyl)-3-(trifluoromethyl)benzamide], the figures for the half-inhibitory concentration (IC50) in assay [1] and in assay [2] were under 1000 nM and at most 1000 nM, respectively.
Consider `O=C(/C=C/c1ccccc1NC(=O)c1ccccc1Oc1ccc(Cl)cc1)NO` [Example I-268, (E)-2-(4-chlorophenoxy)-N-(2-(3-(hydroxyamino)-3-oxoprop-1-en-1-yl)phenyl)benzamide], for which the half-maximal inhibitory concentration (IC50) in assay [1] was under 1000 nM; in assay [2], at most 1000 nM.
Take `O=C(/C=C/c1ccccc1NC(=O)c1ccccc1Oc1ccc(F)cc1)NO` [Example I-306, (E)-2-(4-fluorophenoxy)-N-(2-(3-(hydroxyamino)-3-oxoprop-1-en-1-yl)phenyl)benzamide]: the half-inhibitory concentration (IC50) was under 1000 nM in assay [1] and at most 1000 nM in assay [2].
As to `O=C(/C=C/c1ccccc1NC(=O)c1ncccc1Oc1ccccc1)NO` [Example I-537, N-{2-[(1E)-2-(hydroxycarbamoyl)eth-1-en-1-yl]phenyl}-3-phenoxypyridine-2-carboxamide], the concentration for half-maximal inhibition (IC50) was under 1000 nM in assay [1] and at most 1000 nM in assay [2].
For the molecule `O=C(/C=C/c1ccccc1NC(=O)c1ccccc1Oc1ccc(C(F)(F)F)nc1)NO` [Example I-540, (E)-N-(2-(3-(hydroxyamino)-3-oxoprop-1-en-1-yl)phenyl)-2-((6-(trifluoromethyl)pyridin-3-yl)oxy)benzamide], the results for the half-maximal inhibitory concentration (IC50) in assay [1] and in assay [2] were under 1000 nM and at most 1000 nM, respectively.
The like results for `O=C(/C=C/c1ccccc1N1CC[C@H](c2ccccc2)C1=O)NO` (single isomer, unassigned) [Example I-327] were, in that order, under 1000 nM and at most 1000 nM.
Regarding `Cc1cc(CN2C[C@@H]3C[C@H]2CN3c2ccccc2/C=C/C(=O)NO)n(C)n1` [Example I-317, (E)-3-(2-((1S,4S)-5-((1,3-dimethyl-1H-pyrazol-5-yl)methyl)-2,5-diazabicyclo[2.2.1]heptan-2-yl)phenyl)-N-hydroxyacrylamide], the values for the IC50 in assay [1] and in assay [2] were under 1000 nM and at most 1000 nM, respectively.
The like results for `CS(=O)(=O)c1ccc(CNc2ccccc2/C=C/C(=O)NO)cc1` [Example I-95, (E)-N-hydroxy-3-(2-((4-(methylsulfonyl)benzyl)amino)phenyl)acrylamide] were, in that order, under 1000 nM and at most 1000 nM.
In the case of `O=C(/C=C/c1ccccc1NC(=O)c1cnn(-c2ccc(Cl)cc2)c1C(F)(F)F)NO` [Example I-266, (E)-1-(4-chlorophenyl)-N-(2-(3-(hydroxyamino)-3-oxoprop-1-en-1-yl)phenyl)-5-(trifluoromethyl)-1H-pyrazole-4-carboxamide], the IC50 in assay [1] is under 1000 nM; in assay [2] it was at most 1000 nM.
On to `O=C(/C=C/c1ccccc1NCc1cccnc1)NO` [Example I-93], for which the IC50 in assay [1] was under 1000 nM; in assay [2], at most 1000 nM.
`CN(C(=O)c1cccc(C(F)(F)F)c1)c1ccccc1/C=C/C(=O)NO` [Example I-54, (E)-N-(2-(3-(hydroxyamino)-3-oxoprop-1-en-1-yl)phenyl)-N-methyl-3-(trifluoromethyl)benzamide]: the results for the concentration for half-maximal inhibition (IC50) in assay [1] and in assay [2] were under 1000 nM and at most 1000 nM, respectively.
`O=C(/C=C/c1ccccc1N1CCN(C(=O)c2cnn3c2OCCC3)CC1)NO` [Example I-204, (E)-3-(2-(4-(6,7-dihydro-5H-pyrazolo[5,1-b][1,3]oxazine-3-carbonyl)piperazin-1-yl)phenyl)-N-hydroxyacrylamide]: the results for the IC50 in assay [1] and in assay [2] were under 1000 nM and at most 1000 nM, respectively.
Consider `O=C(/C=C/c1ccccc1N1CCC(NC(=O)c2ccc3[nH]ccc3c2)CC1)NO` [Example I-153, (E)-N-(1-(2-(3-(hydroxyamino)-3-oxoprop-1-en-1-yl)phenyl)piperidin-4-yl)-1H-indole-5-carboxamide], for which the IC50 in assay [1] is under 1000 nM; in assay [2] it was at most 1000 nM.
With `O=C(/C=C/c1cc(C(F)(F)F)ccc1NC(=O)c1ccccc1Oc1ccc(F)cc1)NO` [Example I-556, 2-(4-fluorophenoxy)-N-{2-[(1E)-2-(hydroxycarbamoyl)eth-1-en-1-yl]-4-(trifluoromethyl)phenyl}benazmide], the IC50 in assay [1] is under 1000 nM; in assay [2] it was at most 1000 nM.
For `CS(=O)(=O)c1cccc(CNc2ccccc2/C=C/C(=O)NO)c1` [Example I-100, (E)-N-hydroxy-3-(2-((3-(methylsulfonyl)benzyl)amino)phenyl)acrylamide], the IC50 in assay [1] was under 1000 nM; in assay [2], at most 1000 nM.
Turning to `N#Cc1cccc(C(=O)Nc2ccccc2/C=C/C(=O)NO)c1` [Example I-44, (E)-3-cyano-N-(2-(3-(hydroxyamino)-3-oxoprop-1-en-1-yl)phenyl)benzamide], the IC50 is under 1000 nM in assay [1] and at most 1000 nM in assay [2].
For `O=C(/C=C/c1ccccc1N1CCC2(CCNC2)C1)NO` (stereo not drawn) [Example I-113, (E)-3-(2-(2,7-diazaspiro[4.4]nonan-2-yl)phenyl)-N-hydroxyacrylamide 2,2,2-trifluoroacetate] the same measures were under 1000 nM and at most 1000 nM.
